# Results: PubChem BioAssay (NCI)
#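 Protocol summary: plate cells (96-well), add compound at 5 concentrations, incubate 48 h, interpolate endpoints linearly. The concentration for full growth arrest is given as TGI.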
# Assays:
# Experiment in all cases: NCI-60 cell line screen, 48 h
# 786-0 renal = tested on: 786-0 renal
# A549 NSCLC = tested on: A549 NSCLC
# KM12 colon = tested on: KM12 colon
# NCI-H460 lung = tested on: NCI-H460 lung
# SF-295 CNS = tested on: SF-295 CNS
# SK-MEL-5 melanoma = tested on: SK-MEL-5 melanoma
# SW-620 colon = tested on: SW-620 colon
# HCC-2998 colon = tested on: HCC-2998 colon
Structure (SMILES),TGI (786-0 renal),TGI (A549 NSCLC),TGI (KM12 colon),TGI (NCI-H460 lung),TGI (SF-295 CNS),TGI (SK-MEL-5 melanoma),TGI (SW-620 colon),TGI (HCC-2998 colon)
N#Cc1cccc(C2SCc3nc4ccccc4n32)c1 (configuration not stated),> 100 µM,> 100 µM,> 100 µM,> 100 µM,> 100 µM,65.2 µM,> 100 µM,
Cc1c(Cl)ccc2[s+]snc12,36.2 µM,> 100 µM,> 100 µM,> 100 µM,> 100 µM,52.1 µM,52.2 µM,> 100 µM
O=C1C(=C2C(=O)c3ccccc3[N+]2=O)N([O-])c2ccccc21,46.1 µM,> 100 µM,,55.3 µM,> 100 µM,32.5 µM,47.5 µM,
C#CC[C@]12CC(=O)CC[C@H]1CC1(C2)OCCO1,> 100 µM,> 100 µM,> 100 µM,> 100 µM,,> 100 µM,> 100 µM,> 100 µM
O=C(CC1(O)C(=O)Nc2ccc(Br)cc21)c1cccc([N+](=O)[O-])c1 (configuration not stated),> 100 µM,> 100 µM,> 100 µM,> 100 µM,> 100 µM,,> 100 µM,> 100 µM
O=C(c1ccccc1)N1CCc2c([nH]c3ccccc23)C1,> 100 µM,> 100 µM,> 100 µM,> 100 µM,> 100 µM,47.6 µM,> 100 µM,> 100 µM
CC1(C)OC2OC(/C=C/[N+](=O)[O-])C3OC(C)(C)OC3C2O1 (configuration not stated),27.7 µM,42.6 µM,31.5 µM,32.4 µM,36 µM,31.7 µM,9.46 µM,31.1 µM
COc1cc(CC2c3cc(OC)c(OC)cc3CCN2C)c(C(=O)O)cc1OC (configuration not stated),> 100 µM,> 100 µM,> 100 µM,,> 100 µM,> 100 µM,> 100 µM,> 100 µM
COC(=O)N1C=Cc2c(c(C)c3c([nH]c4ccccc43)c2C)C1C (configuration not stated),26.5 µM,42.2 µM,,70.3 µM,28.6 µM,31.1 µM,38.9 µM,32.1 µM
N#CC1(C2CC(=O)N(c3ccccc3)C2=O)CCCCC1=O (configuration not stated),> 100 µM,> 100 µM,> 100 µM,> 100 µM,> 100 µM,> 100 µM,> 100 µM,> 100 µM
Cc1cc2c(=O)cc(-c3ccncc3)oc2c(C(N)=O)c1C,> 100 µM,> 100 µM,,> 100 µM,> 100 µM,,> 100 µM,> 100 µM
CC[C@H]1CNC(=O)CC1CC(=O)OC (some centres not stated),> 100 µM,> 100 µM,> 100 µM,> 100 µM,> 100 µM,> 100 µM,> 100 µM,> 100 µM
